Reference: PMC10317887, “Hypoglycaemia frequency and physiological response after double or triple doses of once-weekly insulin icodec vs once-daily insulin glargine U100 in type 2 diabetes: a randomised crossover trial” (Diabetologia, 2023)
Where two headings read alike, the source gives them in different places.

Legend:
[1] = test system: individuals with type 2 diabetes; format: in vivo, human; conditions: for Mean PGnadir, treatment ratio (95% CI) icodec vs glargine U100 / Mean PGnadir, estimated geometric mean: all participants; for Time to recovery from PGnadir to PG5.5 mmol/l, estimated geometric mean: constant i.v. glucose 5.5 mg kg^−1 min^−1; for Time to recovery from PGnadir to PG5.5 mmol/l, estimated geometric mean / Glucose needed from PGnadir to PG5.5 mmol/l, estimated geometric mean: individuals with PG <3.3 mmol/l at initiation of recovery; for Time to decline from PG5.5 mmol/l to PG3.9 mmol/l, estimated geometric mean: individuals with PG decline to <3.0 mmol/l and/or hypoglycaemia symptoms; for Time to decline from PG5.5 mmol/l to PG3.0 mmol/l, estimated geometric mean: individuals with PG decline to <3.0 mmol/l; for Mean PGnadir in the subgroup analysis: subgroup PGnadir <3.0 mmol/l and/or symptoms
Description: During the two treatment periods, participants received once-weekly icodec for 6 weeks or once-daily glargine U100 for 11 days in randomised order. […] Treatment periods were separated by 35–49 days of washout following icodec and 4–11 days of washout following glargine U100. Icodec (4200 nmol/ml; Novo Nordisk, Bagsværd, Denmark) was administered s.c. in the left thigh at 20:00 hours by qualified site staff using a NovoPen 4 pen injector (Novo Nordisk). […] At the start of week 1, a one-time additional 100% icodec dose was administered to accelerate time to steady state, followed by a normal dose at week 2, a double dose at week 3 (prior to hypoglycaemia induction), no dose at week 4 (due to the double dose given the week before), a normal dose at week 5, and a triple dose at week 6 (prior to hypoglycaemia induction). Insulin glargine U100 (100 U/ml [600 nmol/ml]; Sanofi, Paris, France) was administered s.c. in the right thigh at 09:00 hours by qualified site staff using a SoloStar pen injector (Sanofi). A normal dose of once-daily glargine U100 was established during run in. Glargine U100 was administered at a normal dose for 3 days followed by a double dose on day 4 (prior to hypoglycaemia induction), no dose on day 5 (due to the double dose given the day before), then a normal dose for 5 days, and a triple dose on day 11 (prior to hypoglycaemia induction).
Hypoglycaemia induction was carried out during weeks 3 (double dose) and 6 (triple dose) for icodec and on days 4 (double dose) and 11 (triple dose) for glargine U100 while at steady state. To initiate hypoglycaemia induction, participants should not have experienced hypoglycaemia (PG <3.9 mmol/l) within 24 h or have any relevant medical condition that could confound the outcomes or pose unacceptable risk to the participant. Hypoglycaemia induction (Fig. 1b) was initiated at 16:00 hours 2 days after double/triple icodec dosing (44 h post dose) and on the day of double/triple glargine U100 dosing (7 h post dose). These timings were selected since they approximated the expected time of maximum glucose-lowering effect for both insulin products based on pharmacokinetic/pharmacodynamic modelling performed prior to the trial. For 7.5 h prior to hypoglycaemia induction, PG was kept at 5.5 mmol/l by variable i.v. infusion of glucose (20% wt/vol) or human soluble insulin (100 U/ml in 99.6 ml saline [154 mmol/l NaCl]). PG was measured by a Super GL2 Glucose Analyzer (Dr. Müller Gerätebau, Freital, Germany). Insulin infusion was terminated 60 min prior to hypoglycaemia induction at the latest. PG was maintained at 5.5 mmol/l±20% from 60 min to 30 min prior to hypoglycaemia induction and at 5.5 mmol/l±10% during the last 30 min prior to hypoglycaemia induction. Hypoglycaemia induction was initiated by terminating glucose infusion, thereby allowing PG to decline towards the minimum (nadir) PG target level of no less than 2.5 mmol/l. The handling of alternative scenarios, e.g. PGnadir >2.5 mmol/l, slow PG decline towards hypoglycaemia or slow recovery from hypoglycaemia, is described in electronic supplementary material (ESM) Methods. The investigator recorded if the PGnadir was <3.0 mmol/l or ≥3.0 mmol/l with hypoglycaemic symptoms. The PGnadir level was maintained for 15 min by variable i.v. glucose as needed. Subsequently, euglycaemia was restored by constant i.v. glucose (5.5 mg kg^−1 min^−1) until PG was 5.5 mmol/l, which was maintained until the next morning (between 07:00 hours and 09:00 hours) by variable i.v. glucose. During hypoglycaemia induction, participants remained fasted (except for water ad libitum) and stayed in a supine or semi-supine position (except when cognitive tests were performed). Participants stayed at the clinical site for at least 12 h following each hypoglycaemia induction experiment. […]

[2] = test system: individuals with type 2 diabetes; assay: Cognitive function: trail making B (TMB) test; conditions: for Change in TMB at PG3.0 mmol/l, least-squares mean / Change in TMB at PGnadir, least-squares mean: change from baseline, subgroup
Description: (§1) Hypoglycaemic response assessments were conducted at predefined PG levels during hypoglycaemia development and recovery (Fig. 1b). Hypoglycaemic symptoms score (HSS), hypoglycaemia awareness, counterregulatory hormones, vital signs and cognitive function tests were assessed at baseline (PG5.5 mmol/l), during hypoglycaemia development (PG3.9 mmol/l and PG3.0 mmol/l) and at PGnadir.
(§2) Cognitive function was assessed using the trail making B (TMB) test, the digit symbol substitution test (DSST) and the four-choice reaction time (4CRT) test. In the TMB test from the Halstead Reitan Neuropsychological Battery [16, 17], the participant connects 25 circles distributed on a chart in the correct sequence as quickly as possible. The circles contain a number (1–13) or a letter (A–L), and the correct sequence consists of alternating numbers and letters (i.e. 1–A–2–B–3 etc). The test result is the time needed to complete the task correctly. In the DSST, which is a subtest of the Wechsler Adult Intelligence Scale - Revised [18], nine digits are represented by nine different symbols. During 90 s, the participant is requested to write down the appropriate symbol for as many numbers as possible in a given array. The test result is the number of correct responses. […] In 100 cycles, the participant responds by pressing the corresponding position on a keypad. The test result has two components: percentage of correct answers and the mean response time.
(§3) Changes in HSS, vital signs and cognitive function tests from baseline (PG5.5 mmol/l) to PG3.0 mmol/l and to PGnadir were compared between insulin products at each of the two dose levels using the same approach as described for PGnadir, except that no logarithmic transformation was done and that the baseline value was included as a covariate. Least-squares means, treatment difference and 95% CI were derived.

[3] = test system: individuals with type 2 diabetes; assay: Cognitive function: four-choice reaction time (4CRT) test; conditions: for Change in 4CRT correctness at PG3.0 mmol/l, least-squares mean / Change in 4CRT response time at PG3.0 mmol/l, least-squares mean / Change in 4CRT correctness at PGnadir, least-squares mean / Change in 4CRT response time at PGnadir, least-squares mean: change from baseline, subgroup
Description: as §1, §2, §3

[4] = double dose, n=15 icodec, 13 glargine U100
[5] = triple dose, n=18 icodec, 22 glargine U100
[6] = double dose, n=16 icodec, 15 glargine U100
[7] = triple dose, n=19 icodec, 28 glargine U100
[8] = double dose, n=18 icodec, 17 glargine U100
[9] = triple dose, n=20 icodec, 27 glargine U100

In the case of insulin icodec, the “Time to full recovery from hypoglycaemia” value ([1]; constant i.v. glucose infusion at 5.5 mg kg^−1 min^−1, double and triple doses) is reported as ≤ 30 min, the “Glucose needed from PGnadir to PG5.5 mmol/l, treatment ratio (95% CI) icodec vs glargine U100” value ([1]; double dose) is reported as 1.27 (1.05, 1.53) and the “Time to decline from PG5.5 mmol/l to PG3.0 mmol/l, treatment ratio (95% CI) icodec vs glargine U100” value ([1]; double dose) is reported as 0.64 (0.31, 1.33). The “Time to decline from PG5.5 mmol/l to PG3.9 mmol/l, treatment ratio (95% CI) icodec vs glargine U100” value ([1]; double dose) was 0.62 (0.48, 0.78), the “Time to recovery from PGnadir to PG5.5 mmol/l, treatment ratio (95% CI) icodec vs glargine U100” value ([1]; double dose) was 1.34 (1.16, 1.55) and the “Mean PGnadir, treatment ratio (95% CI) icodec vs glargine U100” value ([1]; double dose) was 0.97 (0.94, 1.00). The “Mean PGnadir, estimated geometric mean” value ([1]; double dose, n=43 icodec, 42 glargine U100) was 3.2 mmol/L, the “Time to recovery from PGnadir to PG5.5 mmol/l, estimated geometric mean” value [1, 4] was 28.3 min and the “Glucose needed from PGnadir to PG5.5 mmol/l, estimated geometric mean” value [1, 4] was 141 mg/kg. For the same substance, the “Time to decline from PG5.5 mmol/l to PG3.9 mmol/l, estimated geometric mean” value ([1]; double dose, n=20 icodec, 19 glargine U100) was 0.7 h, the “Time to decline from PG5.5 mmol/l to PG3.0 mmol/l, estimated geometric mean” value ([1]; double dose, n=17 icodec, 15 glargine U100) was 2.9 h and the “Mean PGnadir in the subgroup analysis, treatment ratio [95% CI] icodec vs glargine U100” value ([1]; double dose) was 1.01. The “Mean PGnadir in the subgroup analysis” value ([1]; double dose) was 2.9 mmol/L, the “Glucose needed from PGnadir to PG5.5 mmol/l, treatment ratio (95% CI) icodec vs glargine U100” value ([1]; triple dose) was 1.02 (0.83, 1.24) and the “Time to decline from PG5.5 mmol/l to PG3.0 mmol/l, treatment ratio (95% CI) icodec vs glargine U100” value ([1]; triple dose) was 1.05 (0.68, 1.64). For the same substance, the “Time to decline from PG5.5 mmol/l to PG3.9 mmol/l, treatment ratio (95% CI) icodec vs glargine U100” value ([1]; triple dose) was 0.90 (0.78, 1.04), the “Time to recovery from PGnadir to PG5.5 mmol/l, treatment ratio (95% CI) icodec vs glargine U100” value ([1]; triple dose) was 1.02 (0.82, 1.28) and the “Mean PGnadir, treatment ratio (95% CI) icodec vs glargine U100” value ([1]; triple dose) was 1.07 (1.04, 1.11). The “Mean PGnadir, estimated geometric mean” value ([1]; triple dose, n=38 icodec, 40 glargine U100) was 3.1 mmol/L, the “Time to recovery from PGnadir to PG5.5 mmol/l, estimated geometric mean” value [1, 5] was 23.8 min and the “Glucose needed from PGnadir to PG5.5 mmol/l, estimated geometric mean” value [1, 5] was 116 mg/kg. For the same substance, the “Time to decline from PG5.5 mmol/l to PG3.9 mmol/l, estimated geometric mean” value ([1]; triple dose, n=20 icodec, 29 glargine U100) was 0.7 h, the “Time to decline from PG5.5 mmol/l to PG3.0 mmol/l, estimated geometric mean” value ([1]; triple dose, n=20 icodec, 28 glargine U100) was 2.4 h and the “Mean PGnadir in the subgroup analysis, treatment ratio [95% CI] icodec vs glargine U100” value ([1]; triple dose) was 1.05. For the same substance, the “Mean PGnadir in the subgroup analysis” value ([1]; triple dose) was 2.9 mmol/L, the “Change in TMB at PG3.0 mmol/l, treatment difference (95% CI) icodec vs glargine U100” value ([2]; double dose) was 0.4 (-0.3, 1.0) and the “Change in TMB at PGnadir, treatment difference (95% CI) icodec vs glargine U100” value ([2]; double dose) was 0.3 (-0.2, 0.9). The “Change in TMB at PG3.0 mmol/l, least-squares mean” value [2, 6] was 0.3 s, the “Change in TMB at PGnadir, least-squares mean” value ([2]; double dose, n=18 icodec, 18 glargine U100) was 0.3 s and the “Change in TMB at PG3.0 mmol/l, treatment difference (95% CI) icodec vs glargine U100” value ([2]; triple dose) was -0.1 (-0.4, 0.2). For the same substance, the “Change in TMB at PGnadir, treatment difference (95% CI) icodec vs glargine U100” value ([2]; triple dose) was -0.1 (-0.3, 0.1), the “Change in TMB at PGnadir, least-squares mean” value [2, 7] was -0.0 s and the “Change in TMB at PG3.0 mmol/l, least-squares mean” value ([2]; triple dose, n=20 icodec, 26 glargine U100) was -0.0 s. For the same substance, the “Change in 4CRT correctness at PG3.0 mmol/l, treatment difference (95% CI) icodec vs glargine U100” value ([3]; double dose) was 0.2 (-1.1, 1.4), the “Change in 4CRT correctness at PGnadir, treatment difference (95% CI) icodec vs glargine U100” value ([3]; double dose) was -0.2 (-1.3, 0.9) and the “Change in 4CRT response time at PG3.0 mmol/l, treatment difference (95% CI) icodec vs glargine U100” value ([3]; double dose) was -79.7 (-170.4, 10.9). The “Change in 4CRT response time at PGnadir, treatment difference (95% CI) icodec vs glargine U100” value ([3]; double dose) was -97.1 (-230.5, 36.3), the “Change in 4CRT correctness at PG3.0 mmol/l, least-squares mean” value [3, 6] was 0.1 %-points and the “Change in 4CRT response time at PG3.0 mmol/l, least-squares mean” value [3, 6] was 19.7 ms. The “Change in 4CRT correctness at PGnadir, least-squares mean” value [3, 8] was -0.3 %-points, the “Change in 4CRT response time at PGnadir, least-squares mean” value [3, 8] was 40.4 ms and the “Change in 4CRT correctness at PG3.0 mmol/l, treatment difference (95% CI) icodec vs glargine U100” value ([3]; triple dose) was 0.1 (-0.7, 0.9). The “Change in 4CRT correctness at PGnadir, treatment difference (95% CI) icodec vs glargine U100” value ([3]; triple dose) was 0.4 (-0.9, 1.7), the “Change in 4CRT response time at PG3.0 mmol/l, treatment difference (95% CI) icodec vs glargine U100” value ([3]; triple dose) was 11.8 (-44.0, 67.6) and the “Change in 4CRT response time at PGnadir, treatment difference (95% CI) icodec vs glargine U100” value ([3]; triple dose) was -66.7 (-155.8, 22.4). For the same substance, the “Change in 4CRT correctness at PGnadir, least-squares mean” value [3, 7] was -0.3 %-points, the “Change in 4CRT response time at PGnadir, least-squares mean” value [3, 7] was 21.3 ms and the “Change in 4CRT correctness at PG3.0 mmol/l, least-squares mean” value [3, 9] was -0.3 %-points. For the same substance, the “Change in 4CRT response time at PG3.0 mmol/l, least-squares mean” value [3, 9] was 55.4 ms.
